Columns and labels:
RAR gamma = molecular target: T1, RAR gamma (Homo sapiens, UniProt P13631); assay: SelectScreen Nuclear Profiling, agonist specificity for RAR gamma; type: cell-based
T1 sequence (P13631 1-454): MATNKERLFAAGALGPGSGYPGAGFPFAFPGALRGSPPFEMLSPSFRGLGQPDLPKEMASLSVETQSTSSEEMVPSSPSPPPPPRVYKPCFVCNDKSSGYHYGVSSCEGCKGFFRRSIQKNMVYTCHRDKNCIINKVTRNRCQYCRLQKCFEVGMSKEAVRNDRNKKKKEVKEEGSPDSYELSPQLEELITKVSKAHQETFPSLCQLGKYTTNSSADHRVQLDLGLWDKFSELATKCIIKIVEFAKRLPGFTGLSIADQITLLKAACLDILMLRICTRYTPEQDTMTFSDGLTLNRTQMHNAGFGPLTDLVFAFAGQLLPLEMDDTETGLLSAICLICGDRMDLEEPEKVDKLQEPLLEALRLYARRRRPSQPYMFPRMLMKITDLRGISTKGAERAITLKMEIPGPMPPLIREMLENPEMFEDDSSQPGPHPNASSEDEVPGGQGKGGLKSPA
Method: (§1) The agonist specificity of the various test compounds for each type of RaR is assessed at Life Technologies using their SelectScreen® Nuclear Profiling Services.

RAR beta = molecular target: T2, RAR beta (Homo sapiens, UniProt P10826); assay: SelectScreen Nuclear Profiling, agonist specificity for RAR beta; type: cell-based
T2 sequence (P10826 1-455): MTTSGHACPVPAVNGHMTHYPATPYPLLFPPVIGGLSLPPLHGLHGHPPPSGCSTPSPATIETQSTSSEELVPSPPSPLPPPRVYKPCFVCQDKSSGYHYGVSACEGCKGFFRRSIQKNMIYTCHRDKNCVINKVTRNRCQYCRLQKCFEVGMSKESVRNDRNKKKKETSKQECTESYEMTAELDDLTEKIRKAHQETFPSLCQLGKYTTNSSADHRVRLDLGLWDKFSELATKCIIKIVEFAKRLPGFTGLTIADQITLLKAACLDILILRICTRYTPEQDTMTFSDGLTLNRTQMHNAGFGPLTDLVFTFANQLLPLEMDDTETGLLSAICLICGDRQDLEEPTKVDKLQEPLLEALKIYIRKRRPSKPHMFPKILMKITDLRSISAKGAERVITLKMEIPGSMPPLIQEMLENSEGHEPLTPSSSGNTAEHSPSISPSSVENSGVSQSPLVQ
Method: as §1

RAR alpha = molecular target: T3, RAR alpha (Homo sapiens, UniProt P10276); assay: SelectScreen Nuclear Profiling, agonist specificity for RAR alpha; type: cell-based; details: for EC50 / RAR alpha % max: agonist specificity, SelectScreen; for RAR-a/RAR-g Selectivity % max: ratio of RAR alpha to RAR gamma % max; for RAR-a/RAR-g Selectivity EC50: ratio of RAR gamma to RAR alpha EC50
T3 sequence (P10276 1-462): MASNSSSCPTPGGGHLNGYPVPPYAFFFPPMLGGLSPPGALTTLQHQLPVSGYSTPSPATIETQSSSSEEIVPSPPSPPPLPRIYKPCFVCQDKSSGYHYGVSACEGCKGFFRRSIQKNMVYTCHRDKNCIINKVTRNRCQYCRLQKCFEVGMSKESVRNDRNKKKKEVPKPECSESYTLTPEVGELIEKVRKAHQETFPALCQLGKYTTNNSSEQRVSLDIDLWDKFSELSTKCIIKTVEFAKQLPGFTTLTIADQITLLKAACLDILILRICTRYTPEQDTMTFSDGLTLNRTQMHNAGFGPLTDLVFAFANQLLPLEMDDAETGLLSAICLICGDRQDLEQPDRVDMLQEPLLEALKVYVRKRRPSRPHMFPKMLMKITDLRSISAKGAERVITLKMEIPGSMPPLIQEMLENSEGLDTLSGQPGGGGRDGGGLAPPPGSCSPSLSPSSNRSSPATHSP
Method: as §1

[1] = tested on: AM5512 AML patient sample-derived xenograft; assay: AML patient sample-derived xenograft AM5512, % human CD45+ cells and survival
Method: AM5512 xenograft mice are prepared as described above.

[2] = tested on: breast cancer cell lines (SKBR3, Au565, ZR75, Hcc1143); assay: Cell viability screening of breast cancer cell lines (ATPlite/CyQuant); type: cell-based; details: four breast cancer cell lines, 5 days of treatment, FIG. 7
Method: All cell lines are obtained from ATCC and cultured at 37° C. in 5% CO2. All are grown in RPMI1640 supplemented with 10 mM HEPES buffer, 2 mM L-glutamine, 50 U/mL penicillin, 50 […] and 10% fetal bovine serum (FBS, all from Invitrogen). Cells lines included AU565, SKBR3, T47D, HCC1143, MCF7, ZR-75-1, and HCC1569.
On the day of the experiment, cells are homogenized using Accumax (EMD Millipore), counted, and adjusted to 40,000 cells/ml for breast cancer lines and 60,000 cells/mL for AML in appropriate growth media. Using a Biotek EL406, 50 μl of cells are distributed into white (ATPlite) or black (CyQuant) 384-well plates (Thermo). Cells are returned to 37° C. incubator to allow adhesion. After three hours, compounds are added to plates using a 20 nl 384-well pin transfer manifold on a Janus workstation. […]
Cell viability is read out using ATPlite (Perkin Elmer) or CyQuant (Life Technologies). […] Plates are incubated for 15 min at room temperature before the luminescence signal was read on an Envision Plate Reader (Perkin Elmer). […] Reagent are added using a multichannel pipet and plates are replaced in incubator for 30 minutes prior to readout on an Envision Plate Reader (Perkin Elmer).
Data acquired as described is stored and grouped in Microsoft's Excel and analyzed using GraphPad Prism Software. […]

[3] = tested on: HCC1954 tumor cells xenograft; assay: HCC1954 breast cancer cell line-derived xenograft, tumor volume; type: in vivo, mice
Method: Breast cancer cell line (HCC1954)-derived xenograft models in BALB/c nude immunocompromised mice are prepared by Crown Biosciences (Beijing, China) essentially as follows.
Six to eight week old BALB/c nude immunocompromised mice, weighing between 18-20 g are inoculated subcutaneously at the right flank region with HCC1954 tumor cells (5×10^6) in 0.1 ml of PBS (1:1 matrigel) for tumor development. […] The final dosage in mice is 6 mg per kg per day in the high dose arm (n=10) and 3 mg per kg per day in the low dose arm (n=10) in a 10 ml/kg volume. […] Tumor volume is measured twice weekly by caliper measurement.

[4] = tested on: AM7440 AML patient sample-derived xenograft; assay: AML patient sample-derived xenograft AM7440, % human CD45+ cells; type: in vivo, mice; details: 6 mg per kg daily oral
Method: (§2) Different AML patient sample (AM8096, AM5512, AM7577 and AM7440)-derived xenograft models in BALB/c nude immunocompromised mice are prepared by Crown Biosciences (Beijing, China) essentially as follows.
(§3) Approximately 2×10^6 cells from each patient sample are suspended in 100 μL PBS and injected into separate mice (n=3 for each different patient sample and for the control) by IV tail injection. For AM5512, AM7577 and AM7440 xenografts, tumor burden is considered high enough to start treatment when the concentration of human CD45^+ cells reaches ˜1-5% in the animal's peripheral blood. Human CD45^+ cells are detected in mouse blood (obtained via eye bleeds) using a fluorescence activated cell sorter and FITC anti-human CD45 (Biolegend, Cat#304037). For AM8096 xenografts, treatment is begun 40 days after injection of cells.
(§4) Human CD45^+ cell levels in peripheral blood from the treated animals and control animals are measured once a week.

[5] = tested on: AM8096 AML patient sample-derived xenograft; assay: AML patient sample-derived xenograft AM8096, % human CD45+ cells; type: in vivo, mice; details: 6 mg per kg daily oral, after 35 days
Method: as §2, §3, §4

[6] = tested on: AM7577 AML patient sample-derived xenograft; assay: AML patient sample-derived xenograft AM7577, % human CD45+ cells; type: in vivo, mice; details: 6 mg per kg daily oral
Method: as §2, §3, §4

[7] = tested on: AML cell lines (SigM5, OCI M1, MV411, HEL, Kasumi); assay: Cell viability screening of AML cell lines (ATPlite/CyQuant); type: cell-based
Method: On the day of the experiment, cells are homogenized using Accumax (EMD Millipore), counted, and adjusted to 40,000 cells/ml for breast cancer lines and 60,000 cells/mL for AML in appropriate growth media. Using a Biotek EL406, 50 μl of cells are distributed into white (ATPlite) or black (CyQuant) 384-well plates (Thermo). Cells are returned to 37° C. incubator to allow adhesion. After three hours, compounds are added to plates using a 20 nl 384-well pin transfer manifold on a Janus workstation. Stocks are arrayed in 10 point quadruplicate dose response in DMSO stock in 384-well compound plates. After addition of compound, plates are incubated for five or ten days in a 37° C. incubator.
Cell viability is read out using ATPlite (Perkin Elmer) or CyQuant (Life Technologies). For ATPlite, plates are removed from the incubator and brought to room temperature prior to use. Lyophilized powder of ATPlite reagent is resuspended in lysis buffer and diluted 1:2 with distilled water. 25 μL of this solution is added to each well using the Biotek liquid handler. Plates are incubated for 15 min at room temperature before the luminescence signal was read on an Envision Plate Reader (Perkin Elmer). For CyQuant, reagents are mixed as per manufacturer's instructions in PBS (Gibco). Reagent are added using a multichannel pipet and plates are replaced in incubator for 30 minutes prior to readout on an Envision Plate Reader (Perkin Elmer).
Data acquired as described is stored and grouped in Microsoft's Excel and analyzed using GraphPad Prism Software. […] Edge wells were excluded.

Compound | RAR gamma % max (RAR gamma) | EC50 (RAR beta) | RAR beta % max (RAR beta) | EC50 (RAR alpha) | RAR alpha % max (RAR alpha) | EC50 (RAR gamma) | also measured
CC1(C)CC=C(c2cnc3ccccc3c2)c2cc(C(=O)Nc3ccc(C(=O)O)cc3)ccc21 [BMS195614] | −14.57% |  | 0% | 1340 nM | −31.01% | 434 nM | 
CC1(C)C(=O)C(C)(C)c2cc(C(=O)Nc3ccc(C(=O)O)cc3)ccc21 [BMS753] | 19.83% | 701 nM | 6% | 1.43 nM | 122.2% | 136 nM | specificity for RARA over RaR-γ (RAR alpha; comparison among tested compounds): greatest specificity for RARA over RaR-γ; RAR-a/RAR-g Selectivity % max (RAR alpha): 6.1624; RAR-a/RAR-g Selectivity EC50 (RAR alpha): 94.8396
CC1(C)CCC(C)(C)c2cc(NC(=O)c3ccc(C(=O)O)cc3)ccc21 [tamibarotene] | 106.1% |  | 114.9% |  |  |  | % CD45+ cells vs vehicle control and ATRA-treated animals ([1]; 3 mg/kg BID, after 28 days): significant reduction; animals surviving the course of the experiment ([1]; 3 mg/kg BID, n=7): 5 of the 7; total % of CD45+ cells and % in blood, bone marrow and spleen vs vehicle ([1]; 6 mg per kg daily oral, after 35 days): significant reduction; sensitivity order of breast cancer cell lines (viability) [2]: SKBR3>Au565>ZR75>Hcc1143; tumor volume ([3]; 3 and 6 mg per kg per day, QD PO, up to 21 days): reduces tumor volume in this model in a dose-dependent manner; reduction in tumor volume, p (t-test, Welch's correction) ([3]; high dose arm, 6 mg per kg per day QD PO): 0.0048; reduction in tumor volume, p (t-test, Welch's correction) ([3]; low dose arm, 3 mg per kg per day QD PO): 0.0552; tumor volume (overall, blood, bone marrow, spleen) vs vehicle [4]: no significant reduction; total % of CD45+ cells and % in blood, bone marrow and spleen vs vehicle [5]: significant reduction; % human CD45+ cells (overall, blood, bone marrow, spleen) vs vehicle [6]: no significant reduction; responsiveness of cell line ([7]; HEL cells): non-responsive; responsiveness of cell line ([7]; MV411 cells): tamibarotene-responsive; sensitivity order of AML cell lines (viability) ([7]; SigM5, MV411, HEL, Kasumi, FIGS. 23A-B): SigM5>MV411>HEL=Kasumi; sensitivity order of AML cell lines (viability) ([7]; three AML cell lines, 5 days of treatment, FIG. 9): SigM5>OCI M1>HEL
CC1=C(/C=C/C(C)=C/C=C/C(C)=C/C(=O)O)C(C)(C)CCC1 [Tretinoin, all-trans retinoic acid] | 99.37% |  | 92.77% |  | 149.4% |  | % CD45+ cells vs vehicle control ([1]; 4 mg/kg BID, after 14 days): reduction in % CD45^+ cells; survival ([1]; 4 mg/kg BID, n=7): none of those mice survived past day 21

The next lines start with results.

RAR gamma % max (RAR gamma) | EC50 (RAR beta) | RAR beta % max (RAR beta) | EC50 (RAR alpha) | RAR alpha % max (RAR alpha) | EC50 (RAR gamma) | Compound | also measured
87.7% | 9.73 nM | 69.36% | 5.01 nM | 102.2% |  | COc1ccc(-c2ccc3cc(C(=O)O)ccc3c2)cc1C12CC3CC(CC(C3)C1)C2 [Adapalene] | 
−13.41% |  | 0% | 27.4 nM | −3.417% | 512 nM | CC1(C)CC=C(C#Cc2ccccc2)c2cc(/C=C/c3ccc(C(=O)O)cc3)ccc21 [BMS493] | 
87.06% |  | 78.24% |  |  |  | CC1(C)CCC(C)(C)c2cc(C(=O)Nc3ccc(C(=O)O)cc3)ccc21 [AM580] | 
78.33% | 5.17 nM | 71.88% | 0.353 nM | 121.4% | 1.1 nM | CC1(C)CCSc2ccc(C#Cc3ccc(C(=O)O)cn3)cc21 [Tazarotenic, Tazarotenic acid] | RAR-a/RAR-g Selectivity % max (RAR alpha): 1.5499; RAR-a/RAR-g Selectivity EC50 (RAR alpha): 3.1172
